The structures appear in SMILES notation. “Also recorded” adds a separate entry of the source. Positions of bridges follow the written chain, without caps; N, C: chain ends. Residues, ends and D or L forms follow the SMILES beside them.

For data set [1], the target named is T1, KLK5 (Homo sapiens, UniProt Q9Y337).
T1 construct: purchased Novoprotein
T1 sequence (Q9Y337 23-293): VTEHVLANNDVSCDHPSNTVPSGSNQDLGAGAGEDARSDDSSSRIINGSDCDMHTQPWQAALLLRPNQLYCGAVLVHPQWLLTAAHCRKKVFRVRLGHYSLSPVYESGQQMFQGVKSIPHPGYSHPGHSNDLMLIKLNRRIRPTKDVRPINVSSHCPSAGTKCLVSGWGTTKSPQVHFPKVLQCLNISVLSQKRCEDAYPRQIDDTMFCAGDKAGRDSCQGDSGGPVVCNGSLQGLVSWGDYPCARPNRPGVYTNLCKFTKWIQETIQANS
In words: KLK5 inhibition, fluorogenic Boc-VPR-AMC assay (S1 Table conditions). The class given is biochemical. As to conditions: KLK5 10 nM, Boc-VPR-AMC 41.6 μM, 1xPBS pH 8.0, 15 min on ice preincubation, read at 15 min, 25°C. The procedure: All assays were performed on 96-well microplates and the change in relative fluorescence unit (RFU) was measured by fluorescence spectrometer (BMG FLUOstar OPTIMA). […] Stock solution of Boc-VPR-AMC was prepared by dissolving the solid in dimethyl sulfoxide to 100 mM and 10 mM for MeOSuc-AAPV. For BODIPY_FL casein, it was reconstituted to 1 mg/mL in 1xPBS. […] The % of inhibition was calculated by the following equation: % of Inhibition=(1−(Sample RFU − Min RFU)/(Max RFU − Min RFU)) X100
(§1) Each inhibition curves were done in triplicates with a minimum of five concentration points fitted. Fitting of each curve was done using SigmaPlot with the Four Parameter Logistic Function and the IC50 calculated. […] All tested compounds were reconstituted to stock solution in water.
The diluent for all the tested compounds, protein and substrate was 1xPBS pH 8.0. Zinc sulfate and p-aminobenzamidine were purchased from Sigma (Dorset, U.K.). […] The ligand-protein mixtures were incubated on ice for 15 minutes and 20 μL was transferred to a well of a 96-well microplate (ThermoScientific, Waltham, U.S.) in triplicate. […] Change in RFU was measured 15 minutes after substrate addition at 25°C.

For data set [2], the target named is T1, KLK5. In words: biochemical. The procedure:
All assays were performed on 96-well microplates and the change in relative fluorescence unit (RFU) was measured by fluorescence spectrometer (BMG FLUOstar OPTIMA). The excitation/emission wavelength was 360/460 nm for the substrate Boc-VPR-AMC (Bachem AG, Hauptstrasse, Switzerland) and MeOSuc-AAPV-AMC (Bachem AG, Hauptstrasse, Switzerland) and 485/520 nm for BODIPY_FL casein (Invitrogen, Carlsbad, US). Stock solution of Boc-VPR-AMC was prepared by dissolving the solid in dimethyl sulfoxide to 100 mM and 10 mM for MeOSuc-AAPV. For BODIPY_FL casein, it was reconstituted to 1 mg/mL in 1xPBS. […] The % of inhibition was calculated by the following equation: % of Inhibition=(1−(Sample RFU − Min RFU)/(Max RFU − Min RFU)) X100
as §1
The diluent for all the tested compounds, protein and substrate was 1xPBS. Serially diluted ligands were mixed with diluted recombinant KLK5 (10 nM f/c). The ligand-protein mixtures were incubated on ice for one hour and 19.5 μL was pipetted into a well of a 96-well microplate in triplicates. To start the reaction, 100 μL of the diluted (41.6 μM f/c) Boc-VPR-AMC substrate solution (contained 0.05% v/v Brij35) was added. The plate was incubated at 37°C and the RFU reading was taken 15 minutes after.
There are two previously reported Km values for KLK5 and its substrate Boc-VPR-AMC which allowed the IC50 to Ki conversion. Ki values were calculated according to the Cheng-Prusoff equation Ki= IC50/1+[S]/Km for single site competitive binding.

Data set [3] concerns in vitro skin equivalent cultures (primary human keratinocytes and fibroblasts). The data set is described as follows: Organotypic skin culture, in-situ zymography with casein substrate. The class given is cell-based. To be noted: 10 μM in PBS, topical, once every day for two days. The method, then: Primary keratinocytes and fibroblasts were isolated from skin biopsies from healthy donors and incubated with 0.25% trypsin/EDTA 3 hours for keratinocytes and Serva 50U/ml collagenase NB6 (Universal Biologicals, Cambridge, UK) 2 hours for fibroblasts. Isolated primary keratinocytes were then co-cultured with lethally irradiated 3T3 mouse fibroblasts and grown in keratinocyte culture media. Primary keratinocytes and fibroblasts from normal donors’ skin biopsies were cultivated in vitro on de-epidermalized dermal matrix as described. Briefly, dermal fibroblasts derived from skin biopsies were seeded onto the reticular side of the de-epidermalized dermal matrix and keratinocytes were seeded on the papillary side. After keratinocytes reached confluence, the culture was lifted at the air-liquid interface for 14 days. The OTCs were then topically treated with Analogue 6 (10 μL, 10 μM) or 1xPBS for the untreated control in two doses each separated by 24hrs. Following treatment, the cultures were harvest and embedded in O.C.T.™ (Sakura Finetek, Netherlands) for cryosections. The cryosections (7 μm thick) of the treated and untreated tissues were washed with 1xPBS. […] Sections were examined under a Leica DM LB fluorescence microscope and the images processed using ImageJ (v1.46).

Data set [4] concerns N-tert skin cells. In words: KLK5-induced IL-8 secretion, ELISA. As to conditions: KLK5 300 nM, Analogue 6 1515 nM (molar excess 5:1), N-tert cells, 6, 24 and 48 hours. The class given is cell-based, human. For orientation: In an ELISA, binding on a coated surface is turned into a signal by an enzyme label.

Consider `CC[C@H](C)[C@@H]1NC(=O)[C@H](CO)NC(=O)[C@H](CCCCN)NC(=O)[C@H]([C@@H](C)O)NC(=O)[C@@H]2CSSC[C@H](NC(=O)[C@H](Cc3c[nH]cn3)NC(=O)[C@@H]3CCCN3C(=O)[C@@H]3CCCN3C1=O)C(=O)N[C@@H](Cc1ccccc1)C(=O)N1CCC[C@H]1C(=O)N[C@@H](CC(=O)O)C(=O)NCC(=O)N[C@@H](CCCNC(=N)N)C(=O)N2` [Analogue I10H] (cyclo(CFPDGRCTKSIPPH); disulfide 1-7), for which the IC50 (commonly the concentration at which inhibition is half-maximal) was determined as 760 nM in data set [1] and 352 ± 144 nM in data set [2] (KLK5 10 nM, Boc-VPR-AMC 41.6 μM, 1xPBS, one hour on ice preincubation, read at 15 min, 37°C). For the same molecule, in data set [2] (calculated from Table 2 IC50 by Cheng-Prusoff equation, read-out: Inhibitory Constant (Ki)), the Ki (as a rule, a measure of affinity in units of concentration, obtained from inhibition or displacement) is 322 nM.

The molecule `CC[C@H](C)[C@@H]1NC(=O)[C@@H]2CCCN2C(=O)[C@@H]2CCCN2C(=O)[C@H]([C@@H](C)CC)NC(=O)[C@H](CO)NC(=O)[C@H](CCCCN)NC(=O)[C@H]([C@@H](C)O)NC(=O)[C@@H]2CSSC[C@H](NC1=O)C(=O)N[C@@H](Cc1ccccc1)C(=O)N1CCC[C@H]1C(=O)N[C@@H](CC(=O)O)C(=O)NCC(=O)N[C@@H](CCCNC(=N)N)C(=O)N2` [Native SFTI, Sunflower Trypsin Inhibitor 1, reference compound] had an IC50 in data set [1] of 300 nM.

As for `CC[C@H](C)[C@@H]1NC(=O)[C@H](CO)NC(=O)[C@H](CCCNC(=N)N)NC(=O)[C@H]([C@@H](C)O)NC(=O)[C@@H]2CSSC[C@H](NC(=O)[C@H](Cc3c[nH]cn3)NC(=O)[C@@H]3CCCN3C(=O)[C@@H]3CCCN3C1=O)C(=O)N[C@@H](Cc1c[nH]c3ccccc13)C(=O)N1CCC[C@H]1C(=O)N[C@@H](CC(=O)O)C(=O)NCC(=O)N[C@@H](CCCNC(=N)N)C(=O)N2` [Analogue 6] (cyclo(CTRSIPPHCWPDGR); disulfide 1-9), in data set [3], the “penetration of the cornified layer of in vitro grown skin” value is listed as “penetrated the cornified layer” and the “skin protease activity in epidermis (in-situ zymography)” value is reported as “weaker in the epidermis of the treated skin compared to untreated skin”. For the same molecule, the “suppression of KLK5-induced IL-8 increase” value in data set [4] is listed as “suppress IL-8 increase up to 6 hours (p<0.05) but not 24 hours after stimulation; also recorded: delay the KLK5-induced IL-8 release by up to 6 hours but not for 24 hours”.
